Assay results reported in patent publication EP0114128A1, “3-Amino-2-oxo-azetidine derivatives containing in position 1 a nitrogen heterocyclic radical, process for their preparation, their use as therapeutical agents and intermediates for their preparation” (priority 1983, dated 1984).
≈ marks a conversion by molar mass, not a printed value. Read-outs that look alike come from different tables or passages of the source.

Experiments:
Assay in all cases: In vitro activity, dilution method in liquid medium (MIC)
Format in all cases: cell-based
[1] = tested on: Providencia DU 48; conditions: read-out: concentrations minimales inhibitrices (C. M. I.)
Method: (§1) Etude pharmacologiaue des produits de l'invention. Activité in vitro, méthode des dilutions en milieu liquide.
(§2) On prépare une série de tubes dans lesquels on répartit une même quantité de milieu nutritif stérile. On distribue dans chaque tube des quantités croissantes du produit à étudier, puis chaque tube est ensemencé avec une souche bactérienne. Après incubation de vingt-quatre ou quarante-huit heures à l'étuve à 37°C, l'inhibition de la croissance est appréciée par transillumination ce qui permet de déterminer les concentrations minimales inhibitrices (C. M. I.) exprimées en µg/cm3.

[2] = tested on: Escherichia Coli DC2; conditions: read-out: concentrations minimales inhibitrices (C. M. I.)
Method: as §1, §2

[3] = tested on: Escherichia Coli DC0; conditions: read-out: concentrations minimales inhibitrices (C. M. I.)
Method: as §1, §2

[4] = tested on: Proteus vulgaris A 232; conditions: read-out: concentrations minimales inhibitrices (C. M. I.)
Method: as §1, §2

[5] = tested on: Escherichia Coli 1894; conditions: read-out: concentrations minimales inhibitrices (C. M. I.)
Method: as §1, §2

[6] = tested on: Pseudomonas aeruginosa 1771 m; conditions: read-out: concentrations minimales inhibitrices (C. M. I.)
Method: as §1, §2

[7] = tested on: Escherichia Coli 1507 E; conditions: COLI1507E, read-out: concentrations minimales inhibitrices (C. M. I.)
Method: as §1, §2

[8] = tested on: Serratia marcesceus 2532; conditions: read-out: concentrations minimales inhibitrices (C. M. I.)
Method: as §1, §2

[9] = tested on: Escherichia Coli TEM; conditions: read-out: concentrations minimales inhibitrices (C. M. I.)
Method: as §1, §2

[10] = tested on: Klebsiella Aeruginosa 1522 E; conditions: read-out: concentrations minimales inhibitrices (C. M. I.)
Method: as §1, §2

[11] = tested on: Escherichia Coli 078; conditions: read-out: concentrations minimales inhibitrices (C. M. I.)
Method: as §1, §2

[12] = tested on: Proteus mirabilis A 235; conditions: read-out: concentrations minimales inhibitrices (C. M. I.)
Method: as §1, §2

[13] = tested on: Klebsiella pneumonae 52145; conditions: read-out: concentrations minimales inhibitrices (C. M. I.)
Method: as §1, §2

[14] = tested on: Enterobacter cloacae 1321 E; conditions: read-out: concentrations minimales inhibitrices (C. M. I.)
Method: as §1, §2

[15] = tested on: Salmonella typhimurium MZ 11; conditions: Salmonella enterica, read-out: concentrations minimales inhibitrices (C. M. I.)
Method: as §1, §2

[16] = COLIDC2, 24 H incubation at 37°C
[17] = COLIDC2, 48 H incubation at 37°C
[18] = COLIDC0, 24 H incubation at 37°C
[19] = COLIDC0, 48 H incubation at 37°C
[20] = COLI1894, 24 H incubation at 37°C
[21] = COLI1894, 48 H incubation at 37°C
[22] = COLI078, 24 H incubation at 37°C
[23] = COLI078, 48 H incubation at 37°C

SMILES | MIC ([1]; DU48, 24 H incubation at 37°C) [µg/mL] | MIC ([1]; DU48, 48 H incubation at 37°C) [µg/mL] | MIC [2, 16] [µg/mL] | MIC [2, 17] [µg/mL] | MIC [3, 18] [µg/mL] | MIC [3, 19] [µg/mL] | MIC ([4]; A232, 24 H incubation at 37°C) [µg/mL] | MIC ([4]; A232, 48 H incubation at 37°C) [µg/mL] | MIC [5, 20] [µg/mL] | MIC [5, 21] [µg/mL] | MIC ([6]; 24 H incubation at 37°C) [µg/mL] | MIC ([6]; 48 H incubation at 37°C) [µg/mL] | MIC ([7]; 24 H incubation at 37°C) [µg/mL] | MIC ([7]; 48 H incubation at 37°C) [µg/mL] | MIC ([8]; 24 H incubation at 37°C) [µg/mL] | MIC ([8]; 48 H incubation at 37°C) [µg/mL] | MIC ([9]; 24 h) [µg/mL] | MIC ([9]; 48 h) [µg/mL] | MIC ([10]; 24 H incubation at 37°C) [µg/mL] | MIC ([10]; 48 H incubation at 37°C) [µg/mL] | also measured
C[C@@H]1[C@H](NC(=O)/C(=N\OC(C)(C)C(=O)O)c2csc(N)n2)C(=O)N1c1nn[nH]n1 (racemic) [Prod. ex.7, (3SR, 4RS) 3-//2-(-2-aminothiazol-4-yl) 2-/(1-carboxy 1-méthyléthoxy) imino/ acétyl/ aminol/4-méthyl 1-(tétrazol-5-yl) 2-azétidinone isomère syn] | 0.6 (≈ 1.42 µM) | 0.6 (≈ 1.42 µM) | 0.6 (≈ 1.42 µM) | 0.6 (≈ 1.42 µM) | 0.6 (≈ 1.42 µM) | 1.2 (≈ 2.83 µM) | 0.08 (≈ 0.189 µM) | 0.08 (≈ 0.189 µM) | 0.6 (≈ 1.42 µM) | 0.6 (≈ 1.42 µM) | 0.6 (≈ 1.42 µM) | 0.6 (≈ 1.42 µM) | 1.2 (≈ 2.83 µM) | 1.2 (≈ 2.83 µM) | 1.2 (≈ 2.83 µM) | 1.2 (≈ 2.83 µM) | 1.2 (≈ 2.83 µM) | 1.2 (≈ 2.83 µM) | 1.2 (≈ 2.83 µM) | 1.2 (≈ 2.83 µM) | MIC [11, 22]: 0.3 µg/mL (≈ 0.709 µM); MIC [11, 23]: 0.6 µg/mL (≈ 1.42 µM); MIC ([12]; A235, 24 H incubation at 37°C): 0.15 µg/mL (≈ 0.354 µM); MIC ([12]; A235, 48 H incubation at 37°C): 0.15 µg/mL (≈ 0.354 µM); MIC ([13]; 24 H incubation at 37°C): 2.5 µg/mL (≈ 5.9 µM); MIC ([13]; 48 H incubation at 37°C): 2.5 µg/mL (≈ 5.9 µM); MIC ([14]; 24 H incubation at 37°C): 2.5 µg/mL (≈ 5.9 µM); MIC ([14]; 48 H incubation at 37°C): 2.5 µg/mL (≈ 5.9 µM); MIC ([15]; 24 H incubation at 37°C): 0.6 µg/mL (≈ 1.42 µM); MIC ([15]; 48 H incubation at 37°C): 0.6 µg/mL (≈ 1.42 µM)
CO/N=C(\C(=O)N[C@@H]1C(=O)N(c2nn[nH]n2)[C@@H]1C)c1csc(N)n1 (racemic) [Prod. ex. 1, (3SR. 4RS) 3-//2-(2-aminothiazol-4-yl) 2-méthoxyimino acétyl/ amino/-4-méthyl 1-(1H-tétrazol-5-yl)-2-azétidinone isomère syn] | 0.6 (≈ 1.71 µM) | 0.6 (≈ 1.71 µM) | 0.6 (≈ 1.71 µM) | 0.6 (≈ 1.71 µM) | 1.2 (≈ 3.42 µM) | 1.2 (≈ 3.42 µM) | 0.3 (≈ 0.854 µM) | 0.3 (≈ 0.854 µM) | 0.08 (≈ 0.228 µM) | 0.08 (≈ 0.228 µM) | ≤ 5 | ≤ 5 | 0.3 (≈ 0.854 µM) | 0.3 (≈ 0.854 µM) | 20 (≈ 56.9 µM) | 20 (≈ 56.9 µM) | 0.6 (≈ 1.71 µM) | 1.2 (≈ 3.42 µM) | 1.2 (≈ 3.42 µM) | 1.2 (≈ 3.42 µM) | MIC [11, 22]: 0.3 µg/mL (≈ 0.854 µM); MIC [11, 23]: 0.3 µg/mL (≈ 0.854 µM); MIC ([12]; A235, 24 H incubation at 37°C): 0.15 µg/mL (≈ 0.427 µM); MIC ([12]; A235, 48 H incubation at 37°C): 0.15 µg/mL (≈ 0.427 µM); MIC ([13]; 24 H incubation at 37°C): 1.2 µg/mL (≈ 3.42 µM); MIC ([13]; 48 H incubation at 37°C): 2.5 µg/mL (≈ 7.12 µM); MIC ([14]; 24 H incubation at 37°C): 0.6 µg/mL (≈ 1.71 µM); MIC ([14]; 48 H incubation at 37°C): 0.6 µg/mL (≈ 1.71 µM); MIC ([15]; 24 H incubation at 37°C): 1.2 µg/mL (≈ 3.42 µM); MIC ([15]; 48 H incubation at 37°C): 1.2 µg/mL (≈ 3.42 µM)
CO/N=C(\C(=O)N[C@@H]1C(=O)N(c2nn[nH]n2)[C@H]1C)c1csc(N)n1 (racemic) [Prod. ex. 2, (3SR, 4SR) 3-//2-(2-aminothiazol-4-yl) 2-méthoxyimino acétyl/ amino/ 4-méthyl 1-(1H-tétrazol-5-yl) 2-azétidinone] | 1.2 (≈ 3.42 µM) | 1.2 (≈ 3.42 µM) | 0.6 (≈ 1.71 µM) | 1.2 (≈ 3.42 µM) | 2.5 (≈ 7.12 µM) | 2.5 (≈ 7.12 µM) | 1.2 (≈ 3.42 µM) | 2.5 (≈ 7.12 µM) | 0.3 (≈ 0.854 µM) | 0.3 (≈ 0.854 µM) | ≤ 5 | ≤ 5 | 0.6 (≈ 1.71 µM) | 0.6 (≈ 1.71 µM) | 20 (≈ 56.9 µM) | > 40 | 10 (≈ 28.5 µM) | 10 (≈ 28.5 µM) | 0.6 (≈ 1.71 µM) | 0.6 (≈ 1.71 µM) | MIC [11, 22]: 0.6 µg/mL (≈ 1.71 µM); MIC [11, 23]: 0.6 µg/mL (≈ 1.71 µM); MIC ([12]; A235, 24 H incubation at 37°C): 0.6 µg/mL (≈ 1.71 µM); MIC ([12]; A235, 48 H incubation at 37°C): 1.2 µg/mL (≈ 3.42 µM); MIC ([13]; 24 H incubation at 37°C): 2.5 µg/mL (≈ 7.12 µM); MIC ([13]; 48 H incubation at 37°C): 2.5 µg/mL (≈ 7.12 µM); MIC ([14]; 24 H incubation at 37°C): 1.2 µg/mL (≈ 3.42 µM); MIC ([14]; 48 H incubation at 37°C): 1.2 µg/mL (≈ 3.42 µM); MIC ([15]; 24 H incubation at 37°C): 1.2 µg/mL (≈ 3.42 µM); MIC ([15]; 48 H incubation at 37°C): 2.5 µg/mL (≈ 7.12 µM)
